Tested on: 997726-040-R-J2-PDC tumor spheroids, viability
Assay: Anticancer human tumor 997726-040-R-J2-PDC patient-derived squamous cell lung carcinoma cell line growth inhibition [PI3K]
Details: spheroids with HUVEC and MSC; for IC50: curve of first compound; for viability, T/C: stronger effect = lower value
Outline: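 Combination activity was assessed by viability in multicellular tumor spheroids carrying HUVEC and MSC components. Agents were tested with PI3K inhibitors from a Cmax-based top dose (or 10 microM) downward in half-log increments.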

[1] = second compound 0.0316 µM, first compound 0.000316 µM
[2] = second compound 0.0316 µM, first compound 0.001 µM
[3] = second compound 0.0316 µM, first compound 0.00316 µM
[4] = second compound 0.0316 µM, first compound 0.01 µM
[5] = second compound 0.0316 µM, first compound 0.0316 µM
[6] = second compound 0.0316 µM, first compound 0.1 µM
[7] = second compound 0.1 µM, first compound 0.000316 µM
[8] = second compound 0.1 µM, first compound 0.001 µM
[9] = second compound 0.1 µM, first compound 0.00316 µM
[10] = second compound 0.1 µM, first compound 0.01 µM
[11] = second compound 0.1 µM, first compound 0.0316 µM
[12] = second compound 0.1 µM, first compound 0.1 µM
[13] = second compound 0.316 µM, first compound 0.000316 µM
[14] = second compound 0.316 µM, first compound 0.001 µM
[15] = second compound 0.316 µM, first compound 0.00316 µM
[16] = second compound 0.316 µM, first compound 0.01 µM
[17] = second compound 0.316 µM, first compound 0.0316 µM
[18] = second compound 0.316 µM, first compound 0.1 µM
[19] = second compound 1 µM, first compound 0.000316 µM
[20] = second compound 1 µM, first compound 0.001 µM
[21] = second compound 1 µM, first compound 0.00316 µM
[22] = second compound 1 µM, first compound 0.01 µM
[23] = second compound 1 µM, first compound 0.0316 µM
[24] = second compound 1 µM, first compound 0.1 µM
[25] = second compound 3.16 µM, first compound 0.000316 µM
[26] = second compound 3.16 µM, first compound 0.001 µM
[27] = second compound 3.16 µM, first compound 0.00316 µM
[28] = second compound 3.16 µM, first compound 0.01 µM
[29] = second compound 3.16 µM, first compound 0.0316 µM
[30] = second compound 3.16 µM, first compound 0.1 µM
[31] = second compound 10 µM, first compound 0.000316 µM
[32] = second compound 10 µM, first compound 0.001 µM
[33] = second compound 10 µM, first compound 0.00316 µM
[34] = second compound 10 µM, first compound 0.01 µM
[35] = second compound 10 µM, first compound 0.0316 µM
[36] = second compound 10 µM, first compound 0.1 µM
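Also: spheroids exposed to compounds for seven days before readout.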

CC(=O)c1c(C)c2cnc(Nc3ccc(N4CCNCC4)cn3)nc2n(C2CCCC2)c1=O + CC(Nc1ncnc2nc[nH]c12)c1cc2cccc(Cl)c2c(=O)n1-c1ccccc1
IC50 (second compound 0.0316 µM): > 100 nM
IC50 (second compound 0.1 µM): > 100 nM
IC50 (second compound 0.316 µM): > 100 nM
IC50 (second compound 1 µM): > 100 nM
IC50 (second compound 3.16 µM): > 100 nM
IC50 (second compound 10 µM): 10.6 nM
viability, T/C [1]: 94%
viability, T/C [2]: 109%
viability, T/C [3]: 93.7%
viability, T/C [4]: 87.7%
viability, T/C [5]: 86.1%
viability, T/C [6]: 61.2%
viability, T/C [7]: 102%
viability, T/C [8]: 94.8%
viability, T/C [9]: 91.3%
viability, T/C [10]: 96.6%
viability, T/C [11]: 78.3%
viability, T/C [12]: 65.5%
viability, T/C [13]: 99.8%
viability, T/C [14]: 96.7%
viability, T/C [15]: 91.3%
viability, T/C [16]: 83.5%
viability, T/C [17]: 81.6%
viability, T/C [18]: 57.3%
viability, T/C [19]: 97.1%
viability, T/C [20]: 85.7%
viability, T/C [21]: 86.9%
viability, T/C [22]: 74.1%
viability, T/C [23]: 75.8%
viability, T/C [24]: 53.3%
viability, T/C [25]: 72.9%
viability, T/C [26]: 71.7%
viability, T/C [27]: 77.3%
viability, T/C [28]: 70.1%
viability, T/C [29]: 58.4%
viability, T/C [30]: 50.4%
viability, T/C [31]: 53.9%
viability, T/C [32]: 51.6%
viability, T/C [33]: 56.9%
viability, T/C [34]: 50.4%
viability, T/C [35]: 41.8%
viability, T/C [36]: 43.4%

CC(=O)c1c(C)c2cnc(Nc3ccc(N4CCNCC4)cn3)nc2n(C2CCCC2)c1=O + Cc1nc(NC(=O)N2CCCC2C(N)=O)sc1-c1ccnc(C(C)(C)C(F)(F)F)c1
IC50 (second compound 0.0316 µM): > 100 nM
IC50 (second compound 0.1 µM): 58.7 nM
IC50 (second compound 0.316 µM): 19.7 nM
IC50 (second compound 1 µM): < 0.316 nM
IC50 (second compound 3.16 µM): < 0.316 nM
IC50 (second compound 10 µM): < 0.316 nM
viability, T/C [1]: 94.4%
viability, T/C [2]: 90.6%
viability, T/C [3]: 83.3%
viability, T/C [4]: 72.9%
viability, T/C [5]: 75.5%
viability, T/C [6]: 51.9%
viability, T/C [7]: 81.5%
viability, T/C [8]: 74.8%
viability, T/C [9]: 71.9%
viability, T/C [10]: 65.2%
viability, T/C [11]: 59.5%
viability, T/C [12]: 43.1%
viability, T/C [13]: 53.4%
viability, T/C [14]: 59%
viability, T/C [15]: 52.9%
viability, T/C [16]: 55.7%
viability, T/C [17]: 46.4%
viability, T/C [18]: 34.8%
viability, T/C [19]: 41.9%
viability, T/C [20]: 44.1%
viability, T/C [21]: 40.1%
viability, T/C [22]: 35.5%
viability, T/C [23]: 29.1%
viability, T/C [24]: 28.4%
viability, T/C [25]: 29.6%
viability, T/C [26]: 30.5%
viability, T/C [27]: 26.2%
viability, T/C [28]: 27.7%
viability, T/C [29]: 27.2%
viability, T/C [30]: 18.6%
viability, T/C [31]: 19.2%
viability, T/C [32]: 15.7%
viability, T/C [33]: 13.4%
viability, T/C [34]: 14.9%
viability, T/C [35]: 11.8%
viability, T/C [36]: 10.5%

Cn1ncnc1[C@H]1c2n[nH]c(=O)c3cc(F)cc(c23)N[C@@H]1c1ccc(F)cc1 + CC(Nc1ccc2c(c1)OCCn1cc(N3C(=O)OCC3C(F)F)nc1-2)C(N)=O
IC50 (second compound 0.00316 µM): > 100 nM
IC50 (second compound 0.01 µM): > 100 nM
IC50 (second compound 0.0316 µM): > 100 nM
IC50 (second compound 0.1 µM): < 0.316 nM
IC50 (second compound 0.316 µM): < 0.316 nM
IC50 (second compound 1 µM): < 0.316 nM
viability, T/C (second compound 0.00316 µM, first compound 0.000316 µM): 84.4%
viability, T/C (second compound 0.00316 µM, first compound 0.001 µM): 99.1%
viability, T/C (second compound 0.00316 µM, first compound 0.00316 µM): 95.7%
viability, T/C (second compound 0.00316 µM, first compound 0.01 µM): 87.5%
viability, T/C (second compound 0.00316 µM, first compound 0.0316 µM): 99.7%
viability, T/C (second compound 0.00316 µM, first compound 0.1 µM): 89.7%
viability, T/C (second compound 0.01 µM, first compound 0.000316 µM): 89.6%
viability, T/C (second compound 0.01 µM, first compound 0.001 µM): 92.4%
viability, T/C (second compound 0.01 µM, first compound 0.00316 µM): 75.9%
viability, T/C (second compound 0.01 µM, first compound 0.01 µM): 71.4%
viability, T/C (second compound 0.01 µM, first compound 0.0316 µM): 84.3%
viability, T/C (second compound 0.01 µM, first compound 0.1 µM): 75.6%
viability, T/C [1]: 63.2%
viability, T/C [2]: 72.9%
viability, T/C [3]: 66.2%
viability, T/C [4]: 71.5%
viability, T/C [5]: 70.2%
viability, T/C [6]: 60.2%
viability, T/C [7]: 49.4%
viability, T/C [8]: 39.8%
viability, T/C [9]: 43.6%
viability, T/C [10]: 45.4%
viability, T/C [11]: 41.8%
viability, T/C [12]: 39%
viability, T/C [13]: 31.2%
viability, T/C [14]: 36%
viability, T/C [15]: 32.4%
viability, T/C [16]: 32.4%
viability, T/C [17]: 33.4%
viability, T/C [18]: 30.9%
viability, T/C [19]: 27.5%
viability, T/C [20]: 26.7%
viability, T/C [21]: 26.6%
viability, T/C [22]: 28.9%
viability, T/C [23]: 31.1%
viability, T/C [24]: 28.8%
